# Measurements published in ChEMBL document CHEMBL1139581, “BCUT descriptors to predicting affinity toward A3 adenosine receptors” (Bioorg Med Chem Lett, 2005).
# Biological target: T1, Adenosine receptor A3 (Rattus norvegicus, UniProt P28647)
# T1 sequence (P28647 whole entry): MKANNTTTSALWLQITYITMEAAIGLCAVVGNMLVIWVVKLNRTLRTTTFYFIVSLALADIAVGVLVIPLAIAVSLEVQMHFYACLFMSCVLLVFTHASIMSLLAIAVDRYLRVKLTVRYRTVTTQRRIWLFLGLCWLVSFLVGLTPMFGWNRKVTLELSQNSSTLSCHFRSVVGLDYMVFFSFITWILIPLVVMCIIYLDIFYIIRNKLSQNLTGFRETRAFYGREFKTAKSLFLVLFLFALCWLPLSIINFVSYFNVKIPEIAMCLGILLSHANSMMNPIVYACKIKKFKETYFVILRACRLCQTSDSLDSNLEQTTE
# Assay: Displacement of radioligand [125I]AB-MECA binding at rat A3 receptor expressed in CHO cells
# Assay type: cell-based
row,Compound,Ki [nM]
1,CCNC(=O)[C@@H]1OC(n2cnc3c(NC(=O)Nc4ccc(S(=O)(=O)Nc5ncccn5)cc4)ncnc32)[C@@H](O)[C@H]1O (some centres not stated),405
2,CCNC(=O)[C@H]1OC(n2cnc3c(NC(=O)Nc4ccc(S(=O)(=O)Nc5ccccn5)cc4)ncnc32)[C@H](O)[C@@H]1O (some centres not stated),54.1
